One data set relates to Plutella xylostella. Briefly: Activity against Plutella xylostella (Example B7). The class given is in vivo. The settings on record: 72 h, young cabbage plants sprayed, 400 ppm active ingredient, 3rd instar caterpillars, 3 days, read-out: percentage reduction in the population and in the feeding damage (% activity). On the procedure: Young cabbage plants are sprayed with an aqueous emulsion spray mixture comprising 400 ppm of active ingredient and, after the spray coating has dried on, populated with 10 caterpillars (3rd instar) of Plutella xylostella and introduced into a plastic container. 3 days later, the percentage reduction in the population and in the feeding damage (% activity) are determined by comparing the number of dead caterpillars and the feeding damage between the treated and untreated plants.

Data set [1] relates to Spodoptera littoralis. Briefly: Activity against Spodoptera littoralis (Example B8). The class given is in vivo. Particulars: 72 h, young soya plants sprayed, 400 ppm active ingredient, 1st instar caterpillars, 3 days, read-out: percentage reduction in the population and in the feeding damage (% activity). On the procedure: Young soya plants are sprayed with an aqueous emulsion spray mixture comprising 400 ppm of active ingredient and, after the spray coating has dried on, populated with 10 caterpillars (1st instar) of Spodoptera littoralis and introduced into a plastic container. 3 days later, the percentage reduction in the population and in the feeding damage (% activity) are determined by comparing the number of dead caterpillars and the feeding damage between the treated and untreated plants.

The subject of data set [2] is Spodoptera littoralis. Briefly: Systemic insecticide test for Spodoptera littoralis (cotton leafworm) (Example B9). The class given is in vivo. The settings on record: in Zea mays, 96 h, read-out: percentage of dead (activity). On the procedure: Four day old maize seedlings (Zea mays, variety Stoneville) are placed individual in vials containing 24 ml water into which the chemical is diluted at 12.5 ppm. Seedlings are allowed to grow for six days. Subsequently leaves are cut and placed in a Petri dish (5 cm diameter), inoculated with twelve to fifteen 1st instar S. littoralis larvae and incubated for four days in a growth chamber (25° C., 50% r.h., 18:6 L:D photo period). Number of alive insects are counted and percentage of dead calculated. Tests were conducted with one replicate. In this test, compounds listed in the Tables above show good activity. In particular compounds T1.1.17, T1.1.89, T41.1.1, T35.1.1, T40.1.1, T30.1.1, T44.1.1, T31.1.1, T31.1.2, T30.1.2, T1.1.17, T1.1.89, T16.1.1, T36.1.1, T16.1.1, T3.7.1, T18.1.1, T43.1.1, T42.1.1, T30.1.2, T30.1.1, T40.1.1, T41.1.1, T45.1.1, T35.1.1, T1.1.73, T18.1.1, T36.1.1, T1.1.1 and T1.1.73 have an activity of over 80%.

Consider `Cc1cc(Cl)cc(C(=O)NC(CS(C)(=N)=O)C(C)C)c1NC(=O)c1cc(C(F)(F)F)nn1-c1ncccc1Cl` (stereo not drawn), for which the melting point (as a rule, the temperature of the solid-liquid transition) was in the range of 248 to 250 °C.

Consider `CCCCC(CS(C)(=N)=O)NC(=O)c1cc(Cl)cc(C)c1NC(=O)c1cc(C(F)(F)F)nn1-c1ncccc1Cl` (stereo not drawn), for which the melting point was 225 to 226 °C.

`COC(=O)C(CCS(C)(=N)=O)NC(=O)c1cc(Cl)cc(C)c1NC(=O)c1cc(C(F)(F)F)nn1-c1ncccc1Cl` (stereo not drawn) came in with a melting point of 207 to 209 °C.

`Cc1cc(Cl)cc(C(=O)NCC(C)S(C)(=O)=NC(=O)C(F)(F)F)c1NC(=O)c1cc(C(F)(F)F)nn1-c1ncccc1Cl` (stereo not drawn) came in with a melting point of 125 to 130 °C.

Take `Cc1cc(C#N)cc(C(=O)NC2(CS(C)(=O)=NC(=O)C(F)(F)F)CC2)c1NC(=O)c1cc(C(F)(F)F)nn1-c1ncccc1Cl` (stereo not drawn): the melting point lay in the range of 187 to 189 °C.

Consider `Cc1cc(Cl)cc(C(=O)NCCS(C)(=N)=O)c1NC(=O)c1cc(C(F)(F)F)nn1-c1ncccc1Cl` (stereo not drawn) [T30.1.1], for which the inhibition at 400 ppm in the data set with Plutella xylostella and in the data set with Spodoptera littoralis [1] was > 80% throughout. Moreover, the pest or weed control at 12.5 ppm in the data set with Spodoptera littoralis [2] is > 80%.

Consider `CCS(=N)(=O)CCNC(=O)c1cc(Cl)cc(C)c1NC(=O)c1cc(C(F)(F)F)nn1-c1ncccc1Cl` (stereo not drawn) [T30.1.2], for which the inhibition at 400 ppm in the data set on Plutella xylostella and with Spodoptera littoralis [1] was > 80% each time. Further, in the data set with Spodoptera littoralis [2], the pest or weed control at 12.5 ppm is > 80%.

As for `Cc1cc(Cl)cc(C(=O)NCCS(C)(=O)=NC(=O)C(F)(F)F)c1NC(=O)c1cc(C(F)(F)F)nn1-c1ncccc1Cl` (stereo not drawn) [T31.1.1], the inhibition at 400 ppm with Plutella xylostella and in the data set with Spodoptera littoralis [1] was > 80% throughout. Further, the pest or weed control at 12.5 ppm in the data set with Spodoptera littoralis [2] was > 80%.

Consider `CCS(=O)(CCNC(=O)c1cc(Cl)cc(C)c1NC(=O)c1cc(C(F)(F)F)nn1-c1ncccc1Cl)=NC(=O)C(F)(F)F` (stereo not drawn) [T31.1.2], for which the inhibition at 400 ppm in the data set on Plutella xylostella and in the data set on Spodoptera littoralis [1] was > 80% throughout. Also, in the data set on Spodoptera littoralis [2], the pest or weed control at 12.5 ppm was > 80%.

In the case of `Cc1cc(Cl)cc(C(=O)NCC(C)S(C)(=N)=O)c1NC(=O)c1cc(C(F)(F)F)nn1-c1ncccc1Cl` (stereo not drawn) [T36.1.1], the inhibition at 400 ppm in the data set with Plutella xylostella and with Spodoptera littoralis [1] was > 80% in each case. In the data set with Spodoptera littoralis [2], the pest or weed control at 12.5 ppm is > 80%.

With `CCC(CS(C)(=N)=O)NC(=O)c1cc(Cl)cc(C)c1NC(=O)c1cc(C(F)(F)F)nn1-c1ncccc1Cl` (stereo not drawn) [T38.1.1], the melting point is 180 to 185 °C. Moreover, the inhibition at 400 ppm in the data set with Plutella xylostella is > 80%.

On to `Cc1cc(Cl)cc(C(=O)NCCCCS(C)(=N)=O)c1NC(=O)c1cc(C(F)(F)F)nn1-c1ncccc1Cl` (stereo not drawn) [T40.1.1], for which the inhibition at 400 ppm in the data set with Plutella xylostella and in the data set on Spodoptera littoralis [1] was > 80% in each case. In the data set on Spodoptera littoralis [2], the pest or weed control at 12.5 ppm was > 80%.

With `Cc1cc(Cl)cc(C(=O)NCCCCS(C)(=O)=NC(=O)C(F)(F)F)c1NC(=O)c1cc(C(F)(F)F)nn1-c1ncccc1Cl` (stereo not drawn) [T41.1.1], the inhibition at 400 ppm in the data set on Plutella xylostella and in the data set with Spodoptera littoralis [1] was > 80% in each case. The pest or weed control at 12.5 ppm in the data set on Spodoptera littoralis [2] is > 80%.

As for `Cc1cc(Cl)cc(C(=O)NCC(C)(C)CS(C)(=N)=O)c1NC(=O)c1cc(C(F)(F)F)nn1-c1ncccc1Cl` (stereo not drawn) [T42.1.1], the inhibition at 400 ppm with Plutella xylostella and in the data set with Spodoptera littoralis [1] was > 80% throughout. Besides, the pest or weed control at 12.5 ppm in the data set on Spodoptera littoralis [2] is > 80%.

As for `Cc1cc(Cl)cc(C(=O)NCC(C)(C)CS(C)(=O)=NC(=O)C(F)(F)F)c1NC(=O)c1cc(C(F)(F)F)nn1-c1ncccc1Cl` (stereo not drawn) [T43.1.1], the inhibition at 400 ppm in the data set with Plutella xylostella and with Spodoptera littoralis [1] was > 80% throughout. The pest or weed control at 12.5 ppm in the data set with Spodoptera littoralis [2] is > 80%.

Take `Cc1cc(Cl)cc(C(=O)NCCOCCS(C)(=N)=O)c1NC(=O)c1cc(C(F)(F)F)nn1-c1ncccc1Cl` (stereo not drawn) [T44.1.1]: the inhibition at 400 ppm in the data set on Plutella xylostella and in the data set with Spodoptera littoralis [1] was > 80% in each case. Further, the pest or weed control at 12.5 ppm in the data set with Spodoptera littoralis [2] was > 80%.

In the case of `Cc1cc(Cl)cc(C(=O)NCCOCCS(C)(=O)=NC(=O)C(F)(F)F)c1NC(=O)c1cc(C(F)(F)F)nn1-c1ncccc1Cl` (stereo not drawn) [T45.1.1], in the data set on Plutella xylostella, the inhibition at 400 ppm is > 80%. The pest or weed control at 12.5 ppm in the data set on Spodoptera littoralis [2] is > 80%.

(Values after US7893092B2, “Anthranilamide derivatives as insecticides” (Syngenta Crop Protection, Inc., priority 2004, dated 2011).)
